This note sets out measurements from paper PMC9186351, “Discovery of N-quinazolinone-4-hydroxy-2-quinolone-3-carboxamides as DNA gyrase B-targeted antibacterial agents” (Journal of Enzyme Inhibition and Medicinal Chemistry, 2022).

Data set [1] concerns methicillin-resistant S. aureus (MRSA). Briefly: MIC by broth microdilution, MRSA strains. As to conditions: Staphylococcus aureus. It is filed as cell-based. The protocol:
(§1) All of the bacterial strains used in this study were obtained from the Collection Centre of Pathogen Microorganism of Chinese Academy of Medical Sciences (CAMS-CCPM-A) in China. All of the isolates were stored at −80 °C and streaked on tryptic soy agar (TSA) plates to obtain overnight cultures. The MICs of the test compounds were determined by the broth microdilution method in accordance with the Clinical and Laboratory Standards Institute (CLSI) guidelines.[20] Cation-adjusted Mueller-Hinton broth (CAMHB) was used as the growth medium for MIC assays. Briefly, 100 μL of serially diluted compounds (starting concentrations were 64 μg/mL) in CAMH broth were added to the wells of 96-well microtiter plates. Then, 10 µL of 5 × 10^6 CFU/mL bacterial culture was added to each well. […] The MIC was defined as the lowest concentration of a compound that inhibited visual growth of the bacteria. Vancomycin was set as the positive control for this assay.
Background: In broth dilution the organism is exposed to a series of concentrations in liquid medium.

Data set [2] is described as follows: Mouse microsomal stability assay. The format is in vitro ADME. As to conditions: mouse, microsomes, pH 7.4. The protocol: The mouse liver microsomes were purchased from BioreclamationIVT and stored at −80 °C. The working solutions (0.2 mM) of the control compound, i.e. dextromethorphan, and the test compound dissolved in DMSO were prepared. Terfenadine (5 ng/mL) and tolbutamide (10 ng/mL) dissolved in acetonitrile were used as two quenching solutions. NADPH was dissolved in the phosphate buffer (50 mM K2HPO4, pH 7.4) at 5 mM. The mouse liver microsomes were thawed at 37 °C. The concentration of the stock solution was 20 mg/mL. The working solution (0.629 mg/mL) was prepared by dilution in phosphate buffer.
The working solution of the control/test compound (1.5 µL) was mixed with the liver microsome working solution (238.5 µL) in a 96-well plate and pre-incubated at 37 °C for 5 min. The 5 mM NADPH working solution (60 µL) was added to the solution to initiate the metabolic reaction. At each time point (0, 5, 15, 30, and 60 for the control/test compound), 30 µL of the reaction mixture was sampled and moved to 300 µL of quenching solutions. When the sampling was done, each sample was centrifuged at 4000 rpm at 4 °C for 15 min. The supernatant was analysed with the same HPLC system as the plasma stability assay. The residues (%) of the test/control compound along with the incubation time were calculated based on which the half-life (t1/2) value was determined.

A further data set has as its system HUVECs. Briefly: Cytotoxicity, SRB assay, HUVEC. The note with it: 72-h treatment (footnote), read-out: In vitro cytotoxicity CC50 (μM, mean ± SD). The format is cell-based, human. The protocol: (§2) Cytotoxicity in terms of CC50 was determined by the SRB assay according to the protocol described in our previous publication.[16] Briefly, human HUVECs or HepG2 cells were seeded in the wells of 96-well plates at a concentration of 1 × 10^5 cells per well and incubated at 37 °C for 24 h. […] The cells were fixed with 10% trichloroacetic acid (w/v) at 4 °C for 1 h, washed five times with distilled water, and stained with 0.4% SRB solution at room temperature for another 20 min. The cells were then washed five times with 1% acetic acid and air-dried. The protein-bound dye was dissolved in 10 mM Tris-base solution and shaken for 5 min. The optical density (OD) was measured at 540 nm using a microplate reader to estimate the cell viability (%). With the viability values (%) of the cells treated by the compound at different concentrations as input, the CC50 value was determined by the non-linear regression with normalised dose-response fit implemented in GraphPad Prism version 5 software (GraphPad Software Inc., La Jolla, CA). The experiment was performed in duplicate, and paclitaxel was used as the positive drug for this assay.

Data set [3] is described as follows: Cytotoxicity, SRB assay, HUVEC. The format is cell-based, human. The note with it: human, HUVEC cells, 72-h treatment (footnote), read-out: In vitro cytotoxicity CC50 (μM, mean ± SD). As to the method: as §2
A general note: Sulforhodamine B stains cellular protein and so reports cell mass.

Data set [4] has as its system methicillin-sensitive S. aureus (MSSA). Briefly: MIC by broth microdilution, MSSA isolates. The format is cell-based. As to conditions: Staphylococcus aureus. The protocol: as §1
A further data set deals with MRSA/VISA strains. In words: MIC by broth microdilution, MRSA and VISA panel. The note with it: Staphylococcus aureus. The format is cell-based, S. aureus. As to the method:
as §1

The target in the next data set is T1, S. aureus GyrB (Staphylococcus aureus, UniProt P0A0K8).
T1 construct: purchased Inspiralis Ltd., Norwich, UK
T1 sequence (P0A0K8 whole entry): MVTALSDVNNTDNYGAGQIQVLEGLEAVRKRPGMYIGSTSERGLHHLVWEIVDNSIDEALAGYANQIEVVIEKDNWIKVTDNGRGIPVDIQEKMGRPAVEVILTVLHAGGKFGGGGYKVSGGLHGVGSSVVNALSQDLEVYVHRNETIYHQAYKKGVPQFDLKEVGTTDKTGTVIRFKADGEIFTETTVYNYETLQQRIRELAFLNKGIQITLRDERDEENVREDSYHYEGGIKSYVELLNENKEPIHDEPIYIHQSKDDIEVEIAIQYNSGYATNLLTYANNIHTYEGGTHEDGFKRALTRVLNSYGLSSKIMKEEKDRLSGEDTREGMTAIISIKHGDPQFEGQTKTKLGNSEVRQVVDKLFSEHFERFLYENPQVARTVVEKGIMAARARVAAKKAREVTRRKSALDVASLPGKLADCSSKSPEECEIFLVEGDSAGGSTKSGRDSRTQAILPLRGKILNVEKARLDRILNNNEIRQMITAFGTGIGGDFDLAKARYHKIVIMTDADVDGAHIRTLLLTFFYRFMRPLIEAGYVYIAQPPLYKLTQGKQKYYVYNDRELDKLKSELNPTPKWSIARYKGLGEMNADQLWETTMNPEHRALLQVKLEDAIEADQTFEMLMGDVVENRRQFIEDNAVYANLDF
T1 sequence (P20831 whole entry, further chain): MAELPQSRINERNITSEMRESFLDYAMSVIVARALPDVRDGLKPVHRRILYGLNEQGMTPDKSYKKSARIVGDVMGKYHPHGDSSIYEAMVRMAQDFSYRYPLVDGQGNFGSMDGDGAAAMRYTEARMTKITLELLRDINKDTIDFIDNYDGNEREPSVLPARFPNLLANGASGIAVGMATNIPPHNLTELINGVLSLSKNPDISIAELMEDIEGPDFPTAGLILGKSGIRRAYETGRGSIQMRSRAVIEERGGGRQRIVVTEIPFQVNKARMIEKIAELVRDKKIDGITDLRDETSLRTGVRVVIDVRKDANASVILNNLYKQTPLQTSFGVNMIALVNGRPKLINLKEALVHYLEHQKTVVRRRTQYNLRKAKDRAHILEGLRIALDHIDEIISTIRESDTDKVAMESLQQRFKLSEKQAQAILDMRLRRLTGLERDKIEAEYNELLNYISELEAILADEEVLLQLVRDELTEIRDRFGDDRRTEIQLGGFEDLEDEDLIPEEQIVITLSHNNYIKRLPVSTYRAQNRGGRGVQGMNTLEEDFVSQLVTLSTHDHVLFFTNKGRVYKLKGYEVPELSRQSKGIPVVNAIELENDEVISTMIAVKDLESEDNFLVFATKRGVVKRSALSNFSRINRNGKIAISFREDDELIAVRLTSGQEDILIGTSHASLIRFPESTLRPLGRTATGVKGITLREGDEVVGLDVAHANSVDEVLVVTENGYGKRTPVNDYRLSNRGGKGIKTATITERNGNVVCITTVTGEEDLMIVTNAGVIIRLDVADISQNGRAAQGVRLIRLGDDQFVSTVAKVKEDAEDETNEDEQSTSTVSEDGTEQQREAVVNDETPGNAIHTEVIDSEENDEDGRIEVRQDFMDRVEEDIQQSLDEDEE
Briefly: S. aureus GyrB (Gyrase ATPase) inhibition assay, ADP-Glo. The format is biochemical. As to the method:
The IC50 values for S. aureus GyrB were determined according to our previously reported protocol.[16] For this assay, the reaction mixture (10 μL) consisted of 5 nM S. aureus Gyrase (Inspiralis Ltd., Norwich, UK), assay buffer [40 mM HEPES-KOH (pH 7.6), 10 mM magnesium acetate, 10 mM dithiothreitol, 50 g/L BSA, and 500 mM potassium glutamate], the test compound (0.01–100 μM), 1% DMSO, 10 nM linear pBR322 DNA, and […]. The target compound was dissolved in DMSO (10 mM). A series of dilutions (0.1–1000 μM) were prepared from the stock solution with the assay buffer and DMSO. The dilutions (1 μL) were respectively added to the PCR tubes along with the buffer (7 μL), the linear pBR322 DNA (0.5 μL), S. aureus Gyrase (0.5 μL), and ATP (1 μL). The PCR tubes were sealed and incubated at 37 °C for 30 min. The ADP-Glo reagent (40 μL) was added to stop the reaction and use up the remaining ATP.
The detection reagent (50 μL) was then added and mixed. After 5 min, the mixture in each PCR tube was put in the well of a 96-well plate and its luminescence was measured by the BioTek Synergy 2 microplate reader. The activity values (%) of S. aureus Gyrase treated by the test compound at different concentrations were determined based on the luminescence. GraphPad Prism version 5 software (GraphPad Software Inc., La Jolla, CA) was used to calculate the IC50 values.
(ADP-Glo turns the ADP formed in a reaction into a luminescent signal.)

SMILES strings stand for the structures. In brackets after ≈: the same amount, converted by molar mass. Like-named read-outs stand apart in the source and are kept apart here.

For `CCCCCc1nc2ccccc2c(=O)n1NC(=O)c1c(O)c2ccccc2n(CC)c1=O` [f1, N-(4-oxo-2-pentylquinazolin-3(4H)-yl)-1-ethyl-4-hydroxy-2-oxo-1,2-dihydroquinoline-3-carboxamide], the MIC in data set [1] (ATCC 33591 / MRSA, MRSA ATCC 33591, read-out: MIC) was 4 µg/mL (≈ 8.96 µM); in data set [1] (ATCC 43300 / MRSA, MRSA ATCC 43300, read-out: MIC), 4 µg/mL (≈ 8.96 µM); in data set [1] (MRSA 18-2, read-out: MIC), 8 µg/mL (≈ 17.9 µM); in data set [1] (span over MRSA strains, read-out: MICs against MRSA), 4 to 8 µg/mL (≈ 8.96 to 17.9 µM); in data set [4] (ATCC 29213 / BAA-1708 / BAA-976 / MSSA, ATCC 29213, 15, 18-3, BAA976, BAA1708, span over isolates, read-out: MIC over the five MSSA isolates), 4 to 8 µg/mL (≈ 8.96 to 17.9 µM); in data set [4] (ATCC 29213 / MSSA, MSSA ATCC 29213, read-out: MIC), 4 µg/mL (≈ 8.96 µM). The MIC in data set [4] (BAA-976 / MSSA, MSSA BAA976, read-out: MIC) was 4 µg/mL (≈ 8.96 µM); in data set [4] (BAA-1708 / MSSA, MSSA BAA1708, read-out: MIC), 4 µg/mL (≈ 8.96 µM); in data set [4] (MSSA, MSSA 15, read-out: MIC) it was 8 µg/mL (≈ 17.9 µM); in data set [4] (MSSA, MSSA 18-3, read-out: MIC) it was 4 µg/mL (≈ 8.96 µM); with MRSA/VISA strains (ATCC 33591 / ATCC 43300 / ATCC 700699 / MRSA / VISA, span over ATCC 33591, ATCC 43300, 18-2, ATCC 700699, HIP 5836, HIP 5827, read-out: MICs for MRSA and VISA strains) it was 4 to 16 µg/mL; in the data set on MRSA/VISA strains (span over tested MRSA/VISA strains, read-out: MICs for MRSA/VISA strains converted to), 8.97 to 35.9 µM. In data set [2], this compound displayed a half-life at 1 µM of 24.5 min. In the data set with HUVECs, the CC50 amounted to 51.5 ± 4.5 µM. The CC50 at 72 h in data set [3] is around 50 µM. Further, the 50% inhibitory concentration (IC50) on S. aureus GyrB (IC50 for GyrB (µM, mean ± SD), S. aureus Gyrase ATPase inhibition, average of duplicates) came out at 1.21 ± 0.13 µM. The inhibition at 10 µM at S. aureus GyrB (read-out: GyrB inhibition rate (%) at 10 μM) is 72%.

A word on the half-life: it is how long it takes for the measured level to halve. A high value points to slow decline. The CC50 is the concentration that lowers cell viability or growth by half. As a reminder, the IC50 is the concentration that gives 50% inhibition. Usually inhibition stands for how much of the control response was suppressed.
